Measured values reported in patent US4100346A, “Certain 7(o-amino-methyl- or methylaminomethylphenyl- or cyclohexadienyl- or thienylacetamide)-3[1-carboxymethyl-(or ethyl- or propyl-)-tetrazol-5-ylthiomethyl]-3-cephem-4-carboxylic acids” (Bristol-Myers Company, priority 1976, dated 1978).
≈ marks a conversion by molar mass, not a printed value. Where two headings read alike, the source gives them in different places.

Columns and labels:
Alcaligenes sp. = assay: Growth inhibitory activity, antibiotic dilution technique
Staphylococcus Aureus [1] = assay: Effect of inoculum size on susceptibility of Staphylococcus aureus; assay type: cell-based; details: for MIC: Staphylococcus aureus, geometric means, read-out: Minimum inhibitory concentration
Enterobacter cloacae = assay: Effect of inoculum size on susceptibility of Enterobacteriaceae
Providencia stuartii = assay: Growth inhibitory activity, antibiotic dilution technique; details: Providencia stuartii, read-out: percent of strains inhibited
Pasteurella multocida = assay: as above; details: read-out: Minimum inhibitory concentration
Citrobacter sp. = assay: as above
Escherichia coli = assay: Effect of inoculum size on susceptibility of Enterobacteriaceae
Edwardsiella tarda = assay: Growth inhibitory activity, antibiotic dilution technique; details: read-out: Minimum inhibitory concentration
Staphylococcus aureus [2] = assay: Intramuscular treatment of systemically infected mice; assay type: in vivo; details: im, read-out: PD50 /treatment
Source text: (§1) Treatment of Systemically Infected Mice. The procedures were identical with those published previously [Leitner et al., BL-S640, a Cephalosporin With a Broad Spectrum of Antibacterial Activity: Bioavailability and Therapeutic Properties in Rodents, Antimicrob. Agents Chemother. 7:306-310, (1975)], except that:
(§2) (a) the hog gastric mucin used in infections with Staphylococcus aureus No. 2 was purchased from American Laboratories, Inc., Omaha, Neb. (lot No. 154163) and b) that the medium used to suspend all other organisms contained 3% (rather than 4%) hog gastric mucin (type 1701W, Wilson Laboratories, Inc., Park Forest South, Ill.).
(§3) *Animals infected with penicillinase-producing staphyloccal strains (No.
(§4) and 3) were treated 0 and 2 hours after infection; the others were treate
(§5) 1 and 3.5 hours after infection.

Streptococcus pyogenes = assay: as above; assay type: in vivo; details: im, 3.5 h, read-out: PD50 /treatment
Source text: as §1, §2, §3, §4, §5

Streptococcus pneumoniae = assay: as above; assay type: in vivo; details: im, 3.5 h, read-out: PD50 /treatment
Source text: as §1, §2, §3, §4, §5

Proteus vulgaris = assay: Effect of inoculum size on susceptibility of Enterobacteriaceae
Proteus mirabilis = assay: as above
Pseudomonas aeruginosa = assay: Growth inhibitory activity, antibiotic dilution technique; details: read-out: Minimum inhibitory concentration
Erwinia sp. = assay: as above; details: read-out: Minimum inhibitory concentration

Cc1nnc(SCC2=C(C(=O)O)N3C(=O)[C@@H](NC(=O)Cn4cnnn4)[C@H]3SC2)s1 [Cefazolin]
MIC (Alcaligenes sp.; read-out: Minimum inhibitory concentration, Alcaligenes sp., 2 strains, geometric mean when applicable): > 125 µg/mL
MIC (Alcaligenes sp.; read-out: Minimum inhibitory concentration, Alcaligenes sp., 4 strains, geometric mean when applicable): > 105 µg/mL
MIC (Alcaligenes sp.; read-out: Minimum inhibitory concentration, Alcaligenes sp., 5 strains, geometric mean when applicable): 4.6 µg/mL (≈ 10.1 µM)
MIC (Staphylococcus Aureus [1]; Lacking penicillinase, 3 strains, A, Inoculum of 10^2 organisms): 0.13 µg/mL (≈ 0.286 µM)
MIC (Staphylococcus Aureus [1]; Lacking penicillinase, 3 strains, B, inoculum of 10^6 organisms): 0.2 µg/mL (≈ 0.44 µM)
MIC (Staphylococcus Aureus [1]; Penicillinase producer, 26 strains, A, Inoculum of 10^2 organisms): 0.22 µg/mL (≈ 0.484 µM)
MIC (Staphylococcus Aureus [1]; Penicillinase producer, 26 strains, B, inoculum of 10^6 organisms): 0.79 µg/mL (≈ 1.74 µM)
effect of cell concentration on growth inhibitory activity (Staphylococcus Aureus [1]; penicillinase-producing strains): moderately
MIC (Enterobacter cloacae; read-out: Minimum Inhibitory Concentration, Enterobacter cloacae strain 1, A, Inoculum of 10^2 organisms): 2 µg/mL (≈ 4.4 µM)
MIC (Enterobacter cloacae; read-out: Minimum Inhibitory Concentration, Enterobacter cloacae strain 1, B, Inoculum of 10^6 organisms): > 250 µg/mL
MIC (Enterobacter cloacae; read-out: Minimum Inhibitory Concentration, Enterobacter cloacae strain 2, A, Inoculum of 10^2 organisms): 32 µg/mL (≈ 70.4 µM)
MIC (Enterobacter cloacae; read-out: Minimum Inhibitory Concentration, Enterobacter cloacae strain 2, B, Inoculum of 10^6 organisms): > 250 µg/mL
MIC (Enterobacter cloacae; read-out: Minimum Inhibitory Concentration, Enterobacter cloacae strain 3, A, Inoculum of 10^2 organisms): 8 µg/mL (≈ 17.6 µM)
MIC (Enterobacter cloacae; read-out: Minimum Inhibitory Concentration, Enterobacter cloacae strain 3, B, Inoculum of 10^6 organisms): 250 µg/mL (≈ 550 µM)
MIC (Enterobacter cloacae; read-out: Minimum Inhibitory Concentration, Enterobacter cloacae strain 4, A, Inoculum of 10^2 organisms): 63 µg/mL (≈ 139 µM)
MIC (Enterobacter cloacae; read-out: Minimum Inhibitory Concentration, Enterobacter cloacae strain 4, B, Inoculum of 10^6 organisms): > 250 µg/mL
MIC (Enterobacter cloacae; read-out: Minimum Inhibitory Concentration, Enterobacter cloacae strain 5, A, Inoculum of 10^2 organisms): 8 µg/mL (≈ 17.6 µM)
MIC (Enterobacter cloacae; read-out: Minimum Inhibitory Concentration, Enterobacter cloacae strain 5, B, Inoculum of 10^6 organisms): > 250 µg/mL
inhibition at 16 µg/mL (Providencia stuartii): 23%
MIC (Pasteurella multocida): 0.5 µg/mL (≈ 1.1 µM)
MIC (Citrobacter sp.; read-out: Minimum inhibitory concentration): 75 µg/mL (≈ 165 µM)
MIC (Citrobacter sp.; read-out: Minimum inhibitory concentration, Citrobacter sp., 1 strain): > 125 µg/mL
MIC (Escherichia coli; read-out: Minimum Inhibitory Concentration, Escherichia coli strain 1, A, Inoculum of 10^2 organisms): 1 µg/mL (≈ 2.2 µM)
MIC (Escherichia coli; read-out: Minimum Inhibitory Concentration, Escherichia coli strain 1, B, Inoculum of 10^6 organisms): 4 µg/mL (≈ 8.8 µM)
MIC (Escherichia coli; read-out: Minimum Inhibitory Concentration, Escherichia coli strain 2, A, Inoculum of 10^2 organisms): 2 µg/mL (≈ 4.4 µM)
MIC (Escherichia coli; read-out: Minimum Inhibitory Concentration, Escherichia coli strain 2, B, Inoculum of 10^6 organisms): 16 µg/mL (≈ 35.2 µM)
MIC (Escherichia coli; read-out: Minimum Inhibitory Concentration, Escherichia coli strain 3, A, Inoculum of 10^2 organisms): 1 µg/mL (≈ 2.2 µM)
MIC (Escherichia coli; read-out: Minimum Inhibitory Concentration, Escherichia coli strain 3, B, Inoculum of 10^6 organisms): 2 µg/mL (≈ 4.4 µM)
MIC (Escherichia coli; read-out: Minimum Inhibitory Concentration, Escherichia coli strain 4, A, Inoculum of 10^2 organisms): 1 µg/mL (≈ 2.2 µM)
MIC (Escherichia coli; read-out: Minimum Inhibitory Concentration, Escherichia coli strain 4, B, Inoculum of 10^6 organisms): 2 µg/mL (≈ 4.4 µM)
MIC (Escherichia coli; read-out: Minimum Inhibitory Concentration, Escherichia coli strain 5, A, Inoculum of 10^2 organisms): 1 µg/mL (≈ 2.2 µM)
MIC (Escherichia coli; read-out: Minimum Inhibitory Concentration, Escherichia coli strain 5, B, Inoculum of 10^6 organisms): 2 µg/mL (≈ 4.4 µM)
MIC (Escherichia coli; read-out: Minimum Inhibitory Concentration, Escherichia coli strain 6, A, Inoculum of 10^2 organisms): 1 µg/mL (≈ 2.2 µM)
MIC (Escherichia coli; read-out: Minimum Inhibitory Concentration, Escherichia coli strain 6, B, Inoculum of 10^6 organisms): 2 µg/mL (≈ 4.4 µM)
MIC (Escherichia coli; read-out: Minimum Inhibitory Concentration, Escherichia coli strain 7, A, Inoculum of 10^2 organisms): 1 µg/mL (≈ 2.2 µM)
MIC (Escherichia coli; read-out: Minimum Inhibitory Concentration, Escherichia coli strain 7, B, Inoculum of 10^6 organisms): 2 µg/mL (≈ 4.4 µM)
MIC (Edwardsiella tarda): 0.71 µg/mL (≈ 1.56 µM)
ED50 (Staphylococcus aureus [2]; 3.5 h, Staphylococcus aureus strain 1, challenge 2 × 10^5 - 3 × 10^5, treated 1 and 3.5 hours after infection): 0.09 mg/kg
ED50 (Staphylococcus aureus [2]; Staphylococcus aureus strain 2 (penicillinase-producing), challenge 1 × 10^9, treated 0 and 2 hours after infection): 5 mg/kg
ED50 (Staphylococcus aureus [2]; Staphylococcus aureus strain 3 (penicillinase-producing), challenge 5 × 10^8 - 7 × 10^9, treated 0 and 2 hours after infection): 23 mg/kg
ED50 (Streptococcus pyogenes; Streptococcus pyogenes strain 1, challenge 2 × 10^3 -6 × 10^3, treated 1 and 3.5 hours after infection): 0.57 mg/kg
ED50 (Streptococcus pyogenes; Streptococcus pyogenes strain 2, challenge 1 × 10^4 - 5 × 10^4, treated 1 and 3.5 hours after infection): 0.27 mg/kg
ED50 (Streptococcus pneumoniae; Streptococcus pneumoniae strain 1, challenge 2 × 10^3 - 9 × 10^3, treated 1 and 3.5 hours after infection): 0.39 mg/kg
ED50 (Streptococcus pneumoniae; Streptococcus pneumoniae strain 2, challenge 1 × 10^4 - 3 × 10^4, treated 1 and 3.5 hours after infection): 0.57 mg/kg
MIC (Proteus vulgaris; read-out: Minimum Inhibitory Concentration, Proteus vulgaris strain 1, A, Inoculum of 10^2 organisms): 4 µg/mL (≈ 8.8 µM)
MIC (Proteus vulgaris; read-out: Minimum Inhibitory Concentration, Proteus vulgaris strain 1, B, Inoculum of 10^6 organisms): 250 µg/mL (≈ 550 µM)
MIC (Proteus vulgaris; read-out: Minimum Inhibitory Concentration, Proteus vulgaris strain 2, A, Inoculum of 10^2 organisms): 8 µg/mL (≈ 17.6 µM)
MIC (Proteus vulgaris; read-out: Minimum Inhibitory Concentration, Proteus vulgaris strain 2, B, Inoculum of 10^6 organisms): 32 µg/mL (≈ 70.4 µM)
MIC (Proteus vulgaris; read-out: Minimum Inhibitory Concentration, Proteus vulgaris strain 4, A, Inoculum of 10^2 organisms): 8 µg/mL (≈ 17.6 µM)
MIC (Proteus vulgaris; read-out: Minimum Inhibitory Concentration, Proteus vulgaris strain 4, B, Inoculum of 10^6 organisms): 32 µg/mL (≈ 70.4 µM)
MIC (Proteus mirabilis; read-out: Minimum Inhibitory Concentration, Proteus mirabilis strain 1, A, Inoculum of 10^2 organisms): 4 µg/mL (≈ 8.8 µM)
MIC (Proteus mirabilis; read-out: Minimum Inhibitory Concentration, Proteus mirabilis strain 1, B, Inoculum of 10^6 organisms): 8 µg/mL (≈ 17.6 µM)
MIC (Proteus mirabilis; read-out: Minimum Inhibitory Concentration, Proteus mirabilis strain 2, A, Inoculum of 10^2 organisms): 4 µg/mL (≈ 8.8 µM)
MIC (Proteus mirabilis; read-out: Minimum Inhibitory Concentration, Proteus mirabilis strain 2, B, Inoculum of 10^6 organisms): 16 µg/mL (≈ 35.2 µM)
MIC (Proteus mirabilis; read-out: Minimum Inhibitory Concentration, Proteus mirabilis strain 3, A, Inoculum of 10^2 organisms): 8 µg/mL (≈ 17.6 µM)
MIC (Proteus mirabilis; read-out: Minimum Inhibitory Concentration, Proteus mirabilis strain 3, B, Inoculum of 10^6 organisms): 32 µg/mL (≈ 70.4 µM)
MIC (Proteus mirabilis; read-out: Minimum Inhibitory Concentration, Proteus mirabilis strain 4, A, Inoculum of 10^2 organisms): 4 µg/mL (≈ 8.8 µM)
MIC (Proteus mirabilis; read-out: Minimum Inhibitory Concentration, Proteus mirabilis strain 4, B, Inoculum of 10^6 organisms): 32 µg/mL (≈ 70.4 µM)
MIC (Proteus mirabilis; read-out: Minimum Inhibitory Concentration, Proteus mirabilis strain 5, A, Inoculum of 10^2 organisms): 4 µg/mL (≈ 8.8 µM)
MIC (Proteus mirabilis; read-out: Minimum Inhibitory Concentration, Proteus mirabilis strain 5, B, Inoculum of 10^6 organisms): 16 µg/mL (≈ 35.2 µM)
MIC (Pseudomonas aeruginosa): > 125 µg/mL
MIC (Erwinia sp.): 1.5 µg/mL (≈ 3.3 µM)
